Data as given in the supplement of paper PMC8671470.

Assays:
Settings in all cases: 72 h
[1] = tested on: myeloid leukemia patient primary cells Pat.4; experiment: area under dose-response curve (viability, 1 nM-10 uM) (fraction (0-1)); higher = more sensitive
Protocol: (§1)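 AUC (0–1, higher = more sensitive) of the 5-point dose–response (1 nM–10 µM, 72 h, CellTiter-Glo) in primary AML/CML patient mononuclear cells. 0.030103 is the floor for inactive compounds.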

[2] = tested on: myeloid leukemia patient primary cells Pat.15; experiment: as above
Protocol: as §1

[3] = tested on: myeloid leukemia patient primary cells Pat.6; experiment: as above
Protocol: as §1

[4] = tested on: myeloid leukemia patient primary cells Pat.8; experiment: as above
Protocol: as §1

[5] = tested on: myeloid leukemia patient primary cells Pat.12; experiment: as above
Protocol: as §1

[6] = tested on: myeloid leukemia patient primary cells Pat.9; experiment: as above
Protocol: as §1

[7] = tested on: myeloid leukemia patient primary cells Pat.5; experiment: as above
Protocol: as §1

[8] = tested on: myeloid leukemia patient primary cells Pat.1; experiment: as above
Protocol: as §1

[9] = tested on: myeloid leukemia patient primary cells Pat.7; experiment: as above
Protocol: as §1

[10] = tested on: myeloid leukemia patient primary cells Pat.11; experiment: as above
Protocol: as §1

[11] = tested on: myeloid leukemia patient primary cells Pat.2; experiment: as above
Protocol: as §1

[12] = tested on: myeloid leukemia patient primary cells Pat.3; experiment: as above
Protocol: as §1

[13] = tested on: myeloid leukemia patient primary cells Pat.14; experiment: as above
Protocol: as §1

[14] = tested on: myeloid leukemia patient primary cells Pat.7; experiment: cell viability (% survival relative to DMSO control); higher = less cytotoxic
In short: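 Seventy compounds were pre-printed on 384-well plates at five tenfold concentrations between 1 and 10,000 nM, in duplicate. Thawed mononuclear cells purified by Ficoll from AML or CML patients were added at 10,000 cells/well in RPMI 1640 with 10% FBS for 72 h. Viability by CellTiter-Glo was normalised to DMSO and 10 μM proteasome-inhibitor wells. Where stated, area under the curve was taken from log-logistic fits made with the drc and PharmacoGx R packages, each fit having four parameters.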

[15] = tested on: myeloid leukemia patient primary cells Pat.10; experiment: area under dose-response curve (viability, 1 nM-10 uM) (fraction (0-1)); higher = more sensitive
Protocol: as §1

Row | SMILES | area under dose-response curve [1] | area under dose-response curve [2] | area under dose-response curve [3] | area under dose-response curve [4] | area under dose-response curve [5] | area under dose-response curve [6] | area under dose-response curve [7] | area under dose-response curve [8] | area under dose-response curve [9] | area under dose-response curve [10] | area under dose-response curve [11] | area under dose-response curve [12] | area under dose-response curve [13] | cell viability ([14]; 1 nM) [%] | cell viability ([14]; 10 nM) [%] | cell viability ([14]; 100 nM) [%] | cell viability ([14]; 1000 nM) [%] | cell viability ([14]; 10000 nM) [%] | area under dose-response curve [15]
1 | Sc1ncnc2nc[nH]c12 [6-mercaptopurine] | < 0.0301 | < 0.0301 | < 0.0301 | < 0.0301 | < 0.0301 | 0.0529 | 0.588 | < 0.0301 | < 0.0301 | < 0.0301 | < 0.0301 | 0.44 | < 0.0301 | > 100 | 78.2 | 66.1 | 93.3 | 88.8 | 
2 | Cc1noc2c1-c1ccccc1C(c1ccc(Cl)cc1)=N[C@H]2CC(N)=O [CPI-0610] | 0.423 | 0.423 |  |  |  | 0.34 | 0.74 | 0.264 | 0.0768 | 0.18 | 0.192 | 0.378 |  | > 100 | 97.1 | 84.1 | 60.5 | 58 | 0.458
3 | Nc1ccn([C@@H]2O[C@H](CO)[C@@H](O)[C@@H]2O)c(=O)n1 [Cytarabine] | 0.142 | 0.109 | 0.0602 | 0.0847 | 0.0325 | 0.719 | 0.85 |  | 0.418 | 0.0784 | 0.077 | 0.647 | 0.152 | > 100 | 50.7 | 59.9 | 12.8 | 4.95 | 0.205
4 | CCN(CC)CCN(Cc1ccc(-c2ccc(C(F)(F)F)cc2)cc1)C(=O)Cn1c(SCc2ccc(F)cc2)nc(=O)c2c1CCC2 [Darapladib] | 0.123 | 0.124 | 0.137 | 0.117 | 0.134 | 0.625 | 0.947 | 0.111 | 0.502 | 0.137 | 0.143 | 0.211 | 0.241 | 63.7 | 74.4 | 40.1 | 5.93 | < 0 | 0.104
5 | CC12CCC(O)CC1CCC1C2CCC2(C)C(C3=CC(=O)OC3)CCC12O (stereo not drawn) [Digitoxigenin] | 0.373 | 0.357 | 0.26 | 0.391 | 0.208 | 0.658 | 0.713 | 0.388 | < 0.0301 | 0.279 | 0.27 | 0.601 | 0.305 | 94.8 | 91.8 | 67.9 | > 100 | > 100 | < 0.0301
6 | C[C@H]1O[C@@H](O[C@H]2[C@@H](O)C[C@H](O[C@H]3[C@@H](O)C[C@H](O[C@H]4CC[C@@]5(C)[C@H](CC[C@@H]6[C@@H]5C[C@@H](O)[C@]5(C)[C@@H](C7=CC(=O)OC7)CC[C@]65O)C4)O[C@@H]3C)O[C@@H]2C)C[C@H](O)[C@@H]1O [Digoxin] | 0.42 | 0.493 | 0.328 | 0.425 | 0.275 | 0.609 | 0.611 | 0.348 | < 0.0301 | 0.471 | 0.346 | 0.624 | 0.363 | 76.9 | 86.8 | 69 | 89 | > 100 | < 0.0301
7 | Clc1ccc(COC(Cn2ccnc2)c2ccc(Cl)cc2Cl)cc1 (stereo not drawn) [Econazole] | < 0.0301 | < 0.0301 | 0.0776 | < 0.0301 | < 0.0301 | 0.439 | 0.499 | 0.0311 | 0.202 | < 0.0301 | < 0.0301 | 0.173 | 0.138 | 72.2 | > 100 | 93 | 63.4 | < 0 | 0.277
8 | C[C@]12O[C@H](C[C@]1(O)CO)n1c3ccccc3c3c4c(c5c6ccccc6n2c5c31)CNC4=O [Lestaurtinib] | 0.622 | 0.533 | 0.096 | 0.211 | 0.125 | 0.813 | 0.929 | 0.654 | 0.191 | 0.235 | 0.232 | 0.363 | 0.261 | 88.3 | 62.3 | > 100 | 63.1 | < 0 | 0.124
9 | CC(Cc1ccc(O)c(O)c1)C(C)Cc1ccc(O)c(O)c1 (stereo not drawn) [Masoprocol] | 0.119 | 0.111 | 0.15 | 0.186 | 0.0847 | 0.3 | < 0.0301 | 0.075 | 0.294 | < 0.0301 |  | 0.299 |  | > 100 | 85.3 | 89 | 31.9 | 2.01 | < 0.0301
10 | COc1c(C)c2c(c(O)c1C/C=C(\C)CCC(=O)O)C(=O)OC2 [Mycophenolic acid] | 0.0528 | < 0.0301 | < 0.0301 | 0.0355 | < 0.0301 |  | < 0.0301 | < 0.0301 | < 0.0301 | < 0.0301 | < 0.0301 | 0.0922 | < 0.0301 | 52.5 | 94.8 | 56.3 | > 100 | 99.3 | 
11 | CCOC(=O)N1c2ccc(C(F)(F)F)cc2[C@@H](N(Cc2cc(C(F)(F)F)cc(C(F)(F)F)c2)C(=O)OC)C[C@H]1CC [Torcetrapib] | < 0.0301 | < 0.0301 | 0.0345 | < 0.0301 | < 0.0301 | 0.239 |  | < 0.0301 | 0.197 | < 0.0301 | < 0.0301 | 0.0719 | 0.0394 | 84.5 | 58.4 | > 100 | 50.5 | 30 | 0.212
